Source: the supplement of paper PMC11451515

System: P12-Ichikawa
Assay: cell viability relative to DMSO control; higher = less cytotoxic
Conditions: 48 h
Summary of the method: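 Cells were incubated for 48 h at 37°C before CellTiter-Glo One luminescence was read. The cells were NOMO1 or SEM (500 cells/well) or P12-Ichikawa (1000 cells/well) leukemia cells, adapted for at least four passages in each medium and seeded in 1536-well plates (5 μl). Dosing used library compounds in DMSO applied by pin over 11 threefold points, 47 μM to 0.79 nM. Viability is the per-plate percentage of DMSO wells, with cell-free wells as background.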

[1] = HPLM + 10% dialyzed FBS, 0.000781 µM
[2] = HPLM + 10% dialyzed FBS, 0.00234 µM
[3] = HPLM + 10% dialyzed FBS, 0.00702 µM
[4] = HPLM + 10% dialyzed FBS, 0.0211 µM
[5] = HPLM + 10% dialyzed FBS, 0.0632 µM
[6] = HPLM + 10% dialyzed FBS, 0.19 µM
[7] = HPLM + 10% dialyzed FBS, 0.569 µM
[8] = HPLM + 10% dialyzed FBS, 1.71 µM
[9] = HPLM + 10% dialyzed FBS, 5.12 µM
[10] = HPLM + 10% dialyzed FBS, 15.4 µM
[11] = HPLM + 10% dialyzed FBS, 46.1 µM
[12] = RPMI 5 mM glucose + 10% FBS, 0.000781 µM
[13] = RPMI 5 mM glucose + 10% FBS, 0.00234 µM
[14] = RPMI 5 mM glucose + 10% FBS, 0.00702 µM
[15] = RPMI 5 mM glucose + 10% FBS, 0.0211 µM
[16] = RPMI 5 mM glucose + 10% FBS, 0.0632 µM
[17] = RPMI 5 mM glucose + 10% FBS, 0.19 µM
[18] = RPMI 5 mM glucose + 10% FBS, 0.569 µM
[19] = RPMI 5 mM glucose + 10% FBS, 1.71 µM
[20] = RPMI 5 mM glucose + 10% FBS, 5.12 µM
[21] = RPMI 5 mM glucose + 10% FBS, 15.4 µM
[22] = RPMI 5 mM glucose + 10% FBS, 46.1 µM
[23] = RPMI 5 mM glucose + 10% dialyzed FBS, 0.000781 µM
[24] = RPMI 5 mM glucose + 10% dialyzed FBS, 0.00234 µM
[25] = RPMI 5 mM glucose + 10% dialyzed FBS, 0.00702 µM
[26] = RPMI 5 mM glucose + 10% dialyzed FBS, 0.0211 µM
[27] = RPMI 5 mM glucose + 10% dialyzed FBS, 0.0632 µM
[28] = RPMI 5 mM glucose + 10% dialyzed FBS, 0.19 µM
[29] = RPMI 5 mM glucose + 10% dialyzed FBS, 0.569 µM
[30] = RPMI 5 mM glucose + 10% dialyzed FBS, 1.71 µM
[31] = RPMI 5 mM glucose + 10% dialyzed FBS, 5.12 µM
[32] = RPMI 5 mM glucose + 10% dialyzed FBS, 15.4 µM
[33] = RPMI 5 mM glucose + 10% dialyzed FBS, 46.1 µM

Row | SMILES | cell viability [1] [%] | cell viability [2] [%] | cell viability [3] [%] | cell viability [4] [%] | cell viability [5] [%] | cell viability [6] [%] | cell viability [7] [%] | cell viability [8] [%] | cell viability [9] [%] | cell viability [10] [%] | cell viability [11] [%] | cell viability [12] [%] | cell viability [13] [%] | cell viability [14] [%] | cell viability [15] [%] | cell viability [16] [%] | cell viability [17] [%] | cell viability [18] [%] | cell viability [19] [%] | cell viability [20] [%] | cell viability [21] [%] | cell viability [22] [%] | cell viability [23] [%] | cell viability [24] [%] | cell viability [25] [%] | cell viability [26] [%] | cell viability [27] [%] | cell viability [28] [%] | cell viability [29] [%] | cell viability [30] [%] | cell viability [31] [%] | cell viability [32] [%] | cell viability [33] [%]
1 | Cc1ccc(C(=O)Nc2cccc(C(F)(F)F)c2)cc1Nc1nc(-c2cccnc2)nc2c1cnn2C | 88.1 | 90.8 | 93.7 | 89.5 | 91.2 | 90 | 86.6 | 85.9 | 83.3 | 86.7 | 84 | 73.1 | 83.8 | 88.9 | 85.6 | 83.9 | 82.8 | 87.5 | 88.2 | 79.5 | 78.8 | 74.5 | 90.8 | 85.2 | 87.6 | 86.7 | 95.5 | 84.7 | 90.9 | 96.7 | 75.8 | 76.8 | 86.5
2 | CCCOc1ccc(C(=O)OCCN(CC)CC)cc1N | 106 | 116 | 79.2 | 113 | 122 | 119 | 122 | 123 | 125 | 119 | 118 | 104 | 130 | 69.2 | 112 | 129 | 128 | 130 | 126 | 133 | 115 | 120 | 100 | 115 | 72.8 | 111 | 125 | 123 | 123 | 122 | 130 | 127 | 110
3 | CC/C=C\C[C@H]1C(=O)CC[C@@H]1CC(=O)OC | 121 | 119 | 126 | 125 | 126 | 126 | 117 | 115 | 115 | 114 | 108 | – | – | – | – | – | – | – | – | – | – | – | 122 | 129 | 124 | 121 | 131 | 125 | 125 | 126 | 125 | 116 | 109
4 | COC1=CC=C(C=C1)/C2=C(O)/C(=O)C3=C(O)C=C(O)C(=C3O2)CC=C(C)C | 115 | 115 | 115 | 117 | 121 | 122 | 121 | 119 | 113 | 87.9 | 122 | 108 | 111 | 105 | 110 | 108 | 115 | 114 | 120 | 123 | 67 | 121 | 118 | 110 | 122 | 116 | 127 | 115 | 125 | 128 | 117 | 95.8 | 118
5 | Nc1nc(F)nc2c1ncn2[C@@H]1O[C@H](COP(=O)(O)O)[C@@H](O)[C@@H]1O | 119 | 120 | 121 | 121 | 130 | 124 | 120 | 133 | 128 | 84.2 | 52.2 | 122 | 121 | 132 | 129 | 122 | 142 | 126 | 141 | 137 | 110 | 74.8 | 127 | 123 | 123 | 123 | 130 | 138 | 124 | 126 | 129 | 99.5 | 62.1
6 | CCOC(=O)N1CCN(/[N+]([O-])=N/Oc2cc(O/N=[N+](\[O-])N3CCN(C(=O)OCC)CC3)c([N+](=O)[O-])cc2[N+](=O)[O-])CC1 | 122 | 123 | 125 | 123 | 131 | 140 | 131 | 140 | 136 | 134 | 135 | – | – | – | – | – | – | – | – | – | – | – | – | – | – | – | – | – | – | – | – | – | –
7 | COc1cc2c(cc1OC)[C@@H]1Cc3ccc(OC)c(OC)c3CN1CC2 | 110 | 114 | 114 | 113 | 118 | 117 | 112 | 106 | 112 | 99.1 | 94.5 | – | – | – | – | – | – | – | – | – | – | – | 111 | 117 | 119 | 109 | 110 | 110 | 124 | 117 | 109 | 97.2 | 80.3
8 | N[S+](=O)([O-])c1ccc(Nc2nc(OCC3CCCCC3)c3[nH]cnc3n2)cc1 | 114 | 115 | 117 | 118 | 48 | 24.2 | 13.1 | 15.9 | 20.3 | 52.2 | 73 | 117 | 118 | 115 | 120 | 103 | 109 | 32.3 | 14.7 | 15.2 | 19.4 | 66.2 | 120 | 123 | 111 | 120 | 109 | 108 | 25.2 | 20.7 | 22.5 | 36.5 | 59.5
